# In US20130040882A1, “USE OF FIBROBLAST GROWTH FACTOR FRAGMENTS” (NOVARTIS AG, priority 2003, published 2013):
# Where “and” joins values, the source holds several entries; their conditions need not be identical. Equal entries are not always repeated.
# Legend:
# [1] = Salmon calcitonin/PTS893 monkey study: haematology; format: in vivo, cynomolgus monkeys (Macaca fascicularis);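 also: haematology parameters were measured in blood collected from a peripheral vein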
# Protocol: Animals were fasted overnight before blood collection but had free access to water. Blood samples were taken from a peripheral vein. Standard haematology and clinical chemistry analysis were performed once during pretest and at the end of the treatment period. Blood samples were collected from each animal at the same intervals as described for the clinical chemistry investigations. The serum samples were deep-frozen (approximately −80° C.) until analyses for hormone determination.
# [2] = Salmon calcitonin/PTS893 monkey study: in vivo examinations (mortality, food consumption, clinical observations, body weight); design: species or system cynomolgus monkeys (Macaca fascicularis)
# Protocol: Solvent was used as vehicle for the control group.
# The animals used in this analysis were cynomolgus monkeys (Macaca fascicularis), supplied by Centre de Recherches Primatologiques, Port Louis, Mauritius. Two animals were used per group and sex. […] Animals were examined daily for mortality, food consumption and clinical observations. Body weight was recorded once per week.
# In vivo examinations. No significant histopathological changes were observed.
# [3] = Salmon calcitonin/PTS893 monkey study: urinalysis; conditions: urine
# [4] = Salmon calcitonin/PTS893 monkey study: histopathology incl. osteonectin, osteopontin and osteocalcin staining of bone; format: in vivo, cynomolgus monkeys (Macaca fascicularis); conditions: females
# Protocol: Animals were killed by deep anaesthesia induced by intravenous injection of Pentothal®, followed by exsanguinations. All relevant tissues were sampled for histopathology and gene expression profiling. The following tissue samples were processed for analysis: liver, kidney, pituitary, muscle, bone, duodenum, spleen and trachea. Samples for histopathology were fixed in phosphate-buffered 10% formalin. Bone demineralization was performed with 10% formic acid. Tissue samples were embedded in Paraplast® and sectioned at 4 microns, for staining with haematoxylin and eosin. […] All selected tissues for gene expression profiling were examined histopathologically.
# Bone sections were stained for osteonectin, osteopontin and osteocalcin and were evaluated histopathologically. Histomorphometry of the bone tissue was performed regarding parameters for bone resorption and synthesis (osteoid formation).
# [5] = female monkeys, day 13 of dosing
# [6] = female monkeys, day −8 relative to start of dosing
# [7] = male monkeys, day −6 relative to start of dosing
smiles,measurement,setting,value
CC(C)C[C@H](NC(=O)[C@H](CCCCN)NC(=O)CNC(=O)[C@H](CC(C)C)NC(=O)[C@@H](NC(=O)[C@@H]1CSSC[C@H](N)C(=O)N[C@@H](CO)C(=O)N[C@@H](CC(N)=O)C(=O)N[C@@H](CC(C)C)C(=O)N[C@@H](CO)C(=O)N[C@@H]([C@@H](C)O)C(=O)N1)C(C)C)C(=O)N[C@@H](CO)C(=O)N[C@@H](CCC(N)=O)C(=O)N[C@@H](CCC(=O)O)C(=O)N[C@@H](CC(C)C)C(=O)N[C@@H](Cc1c[nH]cn1)C(=O)N[C@@H](CCCCN)C(=O)N[C@@H](CC(C)C)C(=O)N[C@@H](CCC(N)=O)C(=O)N[C@H](C(=O)N[C@@H](Cc1ccc(O)cc1)C(=O)N1CCC[C@H]1C(=O)N[C@@H](CCCNC(=N)N)C(=O)N[C@H](C(=O)N[C@@H](CC(N)=O)C(=O)N[C@H](C(=O)NCC(=O)N[C@@H](CO)C(=O)NCC(=O)N[C@H](C(=O)N1CCC[C@H]1C(N)=O)[C@@H](C)O)[C@@H](C)O)[C@@H](C)O)[C@@H](C)O [salmon calcitonin],Haematology L,"[1]; females, d7",4.61 pg/ml and 6.21 pg/ml
same,Haematology M,"[1]; females, d7",0.63 nmol/l and 0.82 nmol/l
same,Haematology MCH,"[1]; females, d7",18.6 ng/ml and 19.4 ng/ml
same,Haematology MCHC,"[1]; females, d7",29.0 pg/ml and 28.7 pg/ml
same,Haematology PCV,"[1]; females, d7",0.40 mU/l and 0.44 mU/l
same,Haematology PLAT,"[1]; females, d7",594 nmol/l and 356 nmol/l
same,Haematology RBC,"[1]; females, d7",6.2 nmol/l and 6.6 nmol/l
same,Haematology M,"[1]; females, d13",0.69 nmol/l and 0.39 nmol/l
same,Haematology MCH,"[1]; females, d13",19.5 ng/ml
same,Haematology MCHC,"[1]; females, d13",30.3 pg/ml and 29.9 pg/ml
same,Haematology N,"[1]; females, d13",5.41 nmol/l and 6.16 nmol/l
same,Haematology PCV,"[1]; females, d13",0.33 mU/l and 0.37 mU/l
same,Haematology PLAT,"[1]; females, d13",451 nmol/l and 229 nmol/l
same,Haematology RBC,"[1]; females, d13",5.2 nmol/l and 5.7 nmol/l
same,Haematology E,"[1]; females, d−8 (before dosing)",0.03 mUI/l
same,Haematology L,"[1]; females, d−8 (before dosing)",3.26 pg/ml and 4.79 pg/ml
same,Haematology M,"[1]; females, d−8 (before dosing)",0.25 nmol/l and 0.30 nmol/l
same,Haematology MCH,"[1]; females, d−8 (before dosing)",19.1 ng/ml and 19.8 ng/ml
same,Haematology MCHC,"[1]; females, d−8 (before dosing)",31.2 pg/ml and 30.6 pg/ml
same,Haematology N,"[1]; females, d−8 (before dosing)",3.45 nmol/l and 3.13 nmol/l
same,Haematology PCV,"[1]; females, d−8 (before dosing)",0.40 mU/l and 0.45 mU/l
same,Haematology PLAT,"[1]; females, d−8 (before dosing)",549 nmol/l and 304 nmol/l
same,Haematology RBC,"[1]; females, d−8 (before dosing)",6.5 nmol/l and 7.0 nmol/l
same,Haematology B,"[1]; males, d7",0.04 G/l
same,Haematology E,"[1]; males, d7",0.10 G/l and 0.09 G/l
same,Haematology HB,"[1]; males, d7",11.7 g/dl and 11.5 g/dl
same,Haematology L,"[1]; males, d7",6.79 G/l and 5.57 G/l
same,Haematology M,"[1]; males, d7",0.73 G/l and 0.45 G/l
same,Haematology MCH,"[1]; males, d7",19.9 pg and 19.2 pg
same,Haematology MCHC,"[1]; males, d7",30.3 g/dl and 31.3 g/dl
same,Haematology MCV,"[1]; males, d7",66 fl and 62 fl
same,Haematology N,"[1]; males, d7",4.11 G/l and 3.31 G/l
same,Haematology PCV,"[1]; males, d7",0.39 l/l and 0.37 l/l
same,Haematology PLAT,"[1]; males, d7",396 G/l and 330 G/l
same,Haematology RBC,"[1]; males, d7",5.9 T/l and 6.0 T/l
same,Haematology WBC,"[1]; males, d7",11.8 G/l and 9.5 G/l
same,Haematology B,"[1]; males, d13",0.03 G/l
same,Haematology HB,"[1]; males, d13",11.2 g/dl and 10.3 g/dl
same,Haematology L,"[1]; males, d13",5.38 G/l and 4.92 G/l
same,Haematology M,"[1]; males, d13",0.57 G/l and 0.76 G/l
same,Haematology MCH,"[1]; males, d13",20.2 pg and 19.2 pg
same,Haematology MCHC,"[1]; males, d13",29.0 g/dl and 28.7 g/dl
same,Haematology MCV,"[1]; males, d13",70 fl and 67 fl
same,Haematology N,"[1]; males, d13",1.90 G/l and 3.04 G/l
same,Haematology PCV,"[1]; males, d13",0.39 l/l and 0.36 l/l
same,Haematology PLAT,"[1]; males, d13",302 G/l and 389 G/l
same,Haematology RBC,"[1]; males, d13",5.6 T/l and 5.4 T/l
same,Haematology WBC,"[1]; males, d13",8.0 G/l and 8.8 G/l
same,Haematology HB,"[1]; males, d−6 (before dosing)",12.6 g/dl and 13.6 g/dl
same,Haematology L,"[1]; males, d−6 (before dosing)",4.00 G/l and 6.55 G/l
same,Haematology MCH,"[1]; males, d−6 (before dosing)",20.2 pg and 19.7 pg
same,Haematology MCHC,"[1]; males, d−6 (before dosing)",31.4 g/dl and 32.0 g/dl
same,Haematology MCV,"[1]; males, d−6 (before dosing)",64 fl and 62 fl
same,Haematology N,"[1]; males, d−6 (before dosing)",3.36 G/l and 3.93 G/l
same,Haematology PCV,"[1]; males, d−6 (before dosing)",0.40 l/l and 0.43 l/l
same,Haematology PLAT,"[1]; males, d−6 (before dosing)",351 G/l and 247 G/l
same,Haematology RBC,"[1]; males, d−6 (before dosing)",6.3 T/l and 6.9 T/l
same,Haematology WBC,"[1]; males, d−6 (before dosing)",7.7 G/l and 11.5 G/l
same,Food consumption,"[2]; 50 μg/animal/day sc, two weeks",decrease
same,Signs of toxicity,"[2]; 50 μg/animal/day sc, two weeks",no signs of toxicity
same,"Food Consumption, Avg., Both animals","[2]; males, average of both animals of the group",72.9
same,"Food Consumption, Avg.","[2]; males, average per individual animal",70.8 and 75.0
same,"Food Consumption, Day 1","[2]; males, day 1 of SC dosing, individual animals",75 and 50
same,"Food Consumption, Day 2","[2]; males, day 2 of SC dosing, individual animals",25
same,"Food Consumption, Day 3","[2]; males, day 3 of SC dosing, individual animals",50 and 100
same,"Food Consumption, Day 4","[2]; males, day 4 of SC dosing, individual animals",100 and 75
same,"Food Consumption, Day 5","[2]; males, day 5 of SC dosing, individual animals",100
same,"Food Consumption, Day 6","[2]; males, day 6 of SC dosing, individual animals",75
same,"Food Consumption, Day 7","[2]; males, day 7 of SC dosing, individual animals",100 and 75
same,"Food Consumption, Day 8","[2]; males, day 8 of SC dosing, individual animals",100 and 75
same,"Food Consumption, Day 9","[2]; males, day 9 of SC dosing, individual animals",100
same,"Food Consumption, Day 10","[2]; males, day 10 of SC dosing, individual animals",100
same,"Food Consumption, Day 11","[2]; males, day 11 of SC dosing, individual animals",75 and 100
same,"Food Consumption, Day 12","[2]; males, day 12 of SC dosing, individual animals",75
same,"Food Consumption, Day 13","[2]; males, day 13 of SC dosing, individual animals",25
same,"Food Consumption, Day 14","[2]; males, day 14 of SC dosing, individual animals",75
same,"Food Consumption, Day −1","[2]; males, day −1 (before dosing), individual animals",75
same,"Food Consumption, Day −2","[2]; males, day −2 (before dosing), individual animals",100
same,"Food Consumption, Day −3","[2]; males, day −3 (before dosing), individual animals",75
same,"Food Consumption, Day −4","[2]; males, day −4 (before dosing), individual animals",50 and 75
same,"Food Consumption, Day −5","[2]; males, day −5 (before dosing), individual animals",75
same,"Food Consumption, Day −6","[2]; males, day −6 (before dosing), individual animals",50
same,CREAT,[3]; [5],4800 µmol/L and 4200 µmol/L
same,Ca2+,[3]; [5],17.55 mmol/L and 12.70 mmol/L
same,Cl−,[3]; [5],63 mmol/L and 65 mmol/L
same,I.PHOS,[3]; [5],5.1 mmol/L and 5.8 mmol/L
same,K+,[3]; [5],53 mmol/L and 57 mmol/L
same,Mg2+,[3]; [5],5.40 mmol/L and 4.85 mmol/L
same,NAG,[3]; [5],2.8 IU/l and 2.7 IU/l
same,Na+,[3]; [5],40 mmol/L and 32 mmol/L
same,VOLUME,[3]; [5],67 mL and 49 mL
same,CREAT,"[3]; female monkeys, day −7 relative to start of dosing",6920 µmol/L and 13380 µmol/L
same,CREAT,[3]; [6],10780 µmol/L and 11260 µmol/L
same,Ca2+,[3]; [6],3.00 mmol/L and 3.50 mmol/L
same,K+,[3]; [6],104 mmol/L and 172 mmol/L
same,Mg2+,[3]; [6],3.35 mmol/L and 3.80 mmol/L
same,Na+,[3]; [6],98 mmol/L and 156 mmol/L
same,CREAT,"[3]; male monkeys, day 13 of dosing",4620 µmol/L and 4400 µmol/L
same,Ca2+,"[3]; male monkeys, day 13 of dosing",18.25 mmol/L and 23.40 mmol/L
same,Cl−,"[3]; male monkeys, day 13 of dosing",55 mmol/L and 68 mmol/L
same,I.PHOS,"[3]; male monkeys, day 13 of dosing",2.50 mmol/L and 3.00 mmol/L
same,K+,"[3]; male monkeys, day 13 of dosing",78 mmol/L and 76 mmol/L
same,Mg2+,"[3]; male monkeys, day 13 of dosing",7.05 mmol/L and 9.80 mmol/L
same,Na+,"[3]; male monkeys, day 13 of dosing",14 mmol/L and 15 mmol/L
same,VOLUME,"[3]; male monkeys, day 13 of dosing",68 mL and 54 mL
same,I.PHOS,[3]; [7],4.35 mmol/L and 5.33 mmol/L
same,LDH,[3]; [7],9.0 IU/L and 13.0 IU/L
same,NAG,[3]; [7],2.7 IU/l and 4.2 IU/l
same,VOLUME,[3]; [7],62 mL and 37 mL
same,Inflammatory and regenerative changes in the kidneys,[4],slightly higher incidence
